Source: US7709498B2, “Quinoline derivatives as antibacterial agents” (Janssen Pharmaceutica N.V., priority 2005, dated 2010)
≈ marks a conversion by molar mass, not a printed value.

How the values were obtained:
Assay type in all cases: cell-based
[1] = test system: Pseudomonas aeruginosa (ATCC27853); test: Microtitre plate assay, IC90 determination, PAE 27853; conditions: 90% inhibitory concentration for bacterial growth, 37° C., 24 hours, resazurin fluorescence
Experimental: (§1) The bacteria used in this study were grown overnight in flasks containing 100 ml Mueller-Hinton Broth (Becton Dickinson—cat. no. 275730) in sterile de-ionized water, with shaking, at 37° C. Stocks (0.5 ml/tube) were stored at −70° C. until use. Bacteria titrations were performed in microtiter plates to detect the TCID50, in which the TCID50 represents the dilution that gives rise to bacterial growth in 50% of inoculated cultures.
(§2) In general, an inoculum level of approximately 100 TCID50 was used for susceptibility testing.
(§3) Flat-bottom, sterile 96-well plastic microtiter plates were filled with 180 μl of sterile deionized water, supplemented with 0.25% BSA. Subsequently, stock solutions (7.8× final test concentration) of compounds were added in 45 μl volumes in column 2. Serial five-fold dilutions (45 μl in 180 μl) were made directly in the microtiter plates from column 2 to reach column 11. Untreated control samples with (column 1) and without (column 12) inoculum were included in each microtiter plate. Depending on the bacteria type, approximately 10 to 60 CFU per well of bacteria inoculum (100 TCID50), in a volume of 100 μl in 2.8× Mueller-Hinton broth medium, was added to the rows A to H, except column 12. The same volume of broth medium without inoculum was added to column 12 in row A to H. The cultures were incubated at 37° C. for 24 hours under a normal atmosphere (incubator with open air valve and continuous ventilation). At the end of incubation, one day after inoculation, the bacterial growth was quantitated fluorometrically. Therefore resazurin (0.6 mg/ml) was added in a volume of 20 μl to all wells 3 hours after inoculation, and the plates were re-incubated overnight. A change in colour from blue to pink indicated the growth of bacteria. The fluorescence was read in a computer-controlled fluorometer (Cytofluor Biosearch) at an excitation wavelength of 530 nm and an emission wavelength of 590 nm. The % growth inhibition achieved by the compounds was calculated according to standard methods. The IC90 (expressed in μg/ml) was defined as the 90% inhibitory concentration for bacterial growth.
(§4) BSU 3639 means Bacillus subtilis (ATCC43639); ECO 25922 means Escherichia coli (ATCC25922); EFA 14506 means Enterococcus faecalis (ATCC14506); EFA 29212 means Enterococcus faecalis (ATCC29212); LMO 49594 means Listeria monocytogenes (ATCC49594); PAE 27853 means Pseudomonas aeruginosa (ATCC27853); SMU 33402 means Streptococcus mutans (ATCC33402); SPN 6305 means Streptococcus pneumoniae (ATCC6305); SPY 8668 means Streptococcus pyogens (ATCC8668); STA 43300 means Staphylococcus aureus (ATCC43300); STA 25923 means Staphylococcus aureus (ATCC25923); STA 29213 means Staphylococcus aureus (ATCC29213); STA RMETH means methicilline resistant Staphylococcus aureus (MRSA) (a clinical isolate from the University of Antwerp). ATCC means American type tissue culture.

[2] = test system: Streptococcus pyogens (ATCC8668); test: Microtitre plate assay, IC90 determination, SPY 8668; conditions: 90% inhibitory concentration for bacterial growth, 37° C., 24 hours, resazurin fluorescence
Experimental: as §1, §2, §3, §4

[3] = test system: Enterococcus faecalis (ATCC14506); test: Microtitre plate assay, IC90 determination, EFA 14506; conditions: 90% inhibitory concentration for bacterial growth, 37° C., resazurin fluorescence; for IC90 (μg/ml) EFA 14506: 24 hours; for IC90: Enterococcus faecalis, ATCC14506, 24 h, read-out: IC90 (μg/ml) EFA 14506
Experimental: as §1, §2, §3, §4

[4] = test system: Bacillus subtilis (ATCC43639); test: Microtitre plate assay, IC90 determination, BSU 43639; conditions: 90% inhibitory concentration for bacterial growth, 37° C., resazurin fluorescence; for IC90 (μg/ml) BSU 43639: 24 hours; for IC90: Bacillus subtilis, ATCC43639, 24 h, read-out: IC90 (μg/ml) BSU 43639
Experimental: as §1, §2, §3, §4

[5] = test system: Listeria monocytogenes (ATCC49594); test: Microtitre plate assay, IC90 determination, LMO 49594; conditions: 90% inhibitory concentration for bacterial growth, 37° C., 24 hours, resazurin fluorescence
Experimental: as §1, §2, §3, §4

[6] = test system: Enterococcus faecalis (ATCC29212); test: Microtitre plate assay, IC90 determination, EFA 29212; conditions: 90% inhibitory concentration for bacterial growth, 37° C., 24 hours, resazurin fluorescence
Experimental: as §1, §2, §3, §4

[7] = test system: Streptococcus pneumoniae (ATCC6305); test: Microtitre plate assay, IC90 determination, SPN 6305; conditions: 90% inhibitory concentration for bacterial growth, 37° C., resazurin fluorescence; for IC90 (μg/ml) SPN 6305: 24 hours
Experimental: as §1, §2, §3, §4

[8] = test system: Staphylococcus aureus (ATCC43300); test: Microtitre plate assay, IC90 determination, STA 43300; conditions: 90% inhibitory concentration for bacterial growth, 37° C., 24 hours, resazurin fluorescence
Experimental: as §1, §2, §3, §4

[9] = test system: Streptococcus mutans (ATCC33402); test: Microtitre plate assay, IC90 determination, SMU 33402; conditions: 90% inhibitory concentration for bacterial growth, 37° C., 24 hours, resazurin fluorescence
Experimental: as §1, §2, §3, §4

[10] = test system: Staphylococcus aureus (ATCC25923); test: Microtitre plate assay, IC90 determination, STA 25923; conditions: 90% inhibitory concentration for bacterial growth, 37° C., resazurin fluorescence; for IC90 (μg/ml) STA 25923: 24 hours
Experimental: as §1, §2, §3, §4

[11] = test system: methicilline resistant Staphylococcus aureus (MRSA) (a clinical isolate from the University of Antwerp); test: Microtitre plate assay, IC90 determination, STA RMETH; conditions: 90% inhibitory concentration for bacterial growth, 37° C., 24 hours, resazurin fluorescence
Experimental: as §1, §2, §3, §4

SMILES	IC90 (μg/ml) PAE 27853 [1] [µg/mL]	IC90 (μg/ml) SPY 8668 [2] [µg/mL]	IC90 (μg/ml) LMO 49594 [5] [µg/mL]	IC90 (μg/ml) EFA 29212 [6] [µg/mL]	IC90 (μg/ml) SPN 6305 [7] [µg/mL]	IC90 (μg/ml) STA 25923 [10] [µg/mL]	IC90 (μg/ml) STA RMETH [11] [µg/mL]	other results
COc1nc2ccc(Br)cc2cc1C(c1ccccc1)C(O)(CCN(C)C)c1cccc2ccccc12 (stereo not drawn) [Compound 15]	12.4 (≈ 22.3 µM)	2.2 (≈ 3.96 µM)	2.5 (≈ 4.5 µM)	5.0 (≈ 9 µM)	6.2 (≈ 11.2 µM)	–	–	IC90 (μg/ml) EFA 14506 [3]: 24.8 µg/mL (≈ 44.6 µM); IC90 (μg/ml) BSU 43639 [4]: 24.8 µg/mL (≈ 44.6 µM); IC90 (μg/ml) STA 43300 [8]: 5.0 µg/mL (≈ 9 µM); IC90 (μg/ml) SMU 33402 [9]: 12.4 µg/mL (≈ 22.3 µM)
CCNCCC(O)(c1ccc(F)cc1F)C(c1ccccc1)c1cc2cc(Br)ccc2nc1OC (racemic) [B]	–	–	–	–	–	8.6 (≈ 15.9 µM)	–	–
COc1nc2ccc(Br)cc2cc1C(c1ccccc1)C(O)(CCN)c1ccccc1 (stereo not drawn) [Compound 44]	–	–	–	–	–	–	–	IC90 [4]: 7.6 µg/mL (≈ 15.9 µM); IC90 ([10]; Staphylococcus aureus, ATCC25923, 24 h, read-out: IC90 (μg/ml) STA 25923): 7.6 µg/mL (≈ 15.9 µM)
COc1nc2ccc(Br)cc2cc1C(c1ccccc1)C(O)(CCN1CCCCC1)c1cccc2ccccc12 (stereo not drawn) [Compound 145]	–	–	–	–	–	–	–	IC90 [3]: 23.7 µg/mL (≈ 39.8 µM); IC90 ([7]; Streptococcus pneumoniae, ATCC6305, 24 h, read-out: IC90 (μg/ml) SPN 6305): 9.4 µg/mL (≈ 15.8 µM)
COc1nc2ccc(Br)cc2cc1C(c1ccccc1)C(O)(CCN1CCN(C)CC1)c1ccc2ccccc2c1 (racemic) [Compound 137]	21.2 (≈ 34.7 µM)	–	–	–	23.8 (≈ 39 µM)	8.4 (≈ 13.8 µM)	21.2 (≈ 34.7 µM)	–
CSc1nc2ccc(Br)cc2cc1C(c1ccccc1)C(O)(CCN(C)C)c1ccccc1 (stereo not drawn) [Compound 33]	11.7 (≈ 22.4 µM)	2.6 (≈ 4.99 µM)	2.3 (≈ 4.41 µM)	4.6 (≈ 8.82 µM)	5.9 (≈ 11.3 µM)	13.1 (≈ 25.1 µM)	–	IC90 [3]: 11.7 µg/mL (≈ 22.4 µM); IC90 [4]: 10.4 µg/mL (≈ 19.9 µM); IC90 (μg/ml) STA 43300 [8]: 5.9 µg/mL (≈ 11.3 µM); IC90 (μg/ml) SMU 33402 [9]: 10.4 µg/mL (≈ 19.9 µM)
COc1nc2ccc(Br)cc2cc1C(c1ccccc1)C(O)(CCN1CCN(C)CC1)c1cc(Br)cc2ccccc12 (racemic) [Compound 151]	–	–	–	–	–	–	15.4 (≈ 22.3 µM)	IC90 (μg/ml) EFA 14506 [3]: 15.4 µg/mL (≈ 22.3 µM)
COc1nc2ccc(Br)cc2cc1C(c1ccccc1)C(O)(CCN1CCN(C)CC1)c1ccc2cc(Br)ccc2c1 (racemic) [Compound 154]	–	27.4 (≈ 39.7 µM)	27.4 (≈ 39.7 µM)	27.4 (≈ 39.7 µM)	–	13.8 (≈ 20 µM)	24.5 (≈ 35.5 µM)	IC90 (μg/ml) BSU 43639 [4]: 10.9 µg/mL (≈ 15.8 µM)
